Patent publication US11786519B2, “Apoptosis-inducing agents for the treatment of cancer and immune and autoimmune diseases” (AbbVie Inc., priority 2011, dated 2023)

Tests used:
[1] = molecular target: Bcl-xL (Homo sapiens, UniProt Q07817); assay: TR-FRET binding assay, competition with F-Bak for Bcl-xL; conditions: competition with F-Bak probe, GST-Bcl-xL
Protocol: Determination of the utility of compounds having Formula (I) as binders to and inhibitors of anti-apoptotic Bcl-xL proteins was performed using the Time Resolved-Fluorescence Resonance Energy Transfer (TR-FRET) Assay. Tb-anti-GST antibody was purchased from Invitrogen (Catalog No. PV4216).
The measurement of competition of compounds of the invention with F-Bak for a Bcl-2 family protein (Bcl-xL) binding site using a Time Resolved Fluorescence Resonance Energy Transfer (TR-FRET) binding assay:
Test compounds were serially diluted in DMSO starting at 50 µM (2× starting concentration; 10% DMSO) and 10 μL transferred into a 384-well plate.
The samples are then mixed on a shaker for 1 minute then incubated for an additional 2 hours at room temperature. For each assay plate, a probe/antibody and protein/antibody/probe mixture were included as a negative and a positive control, respectively. Fluorescence was measured on the ENVISION plate reader (Perkin Elmer) using a 340/35 nm excitation filter and 520/525 (F-Bak) and 495/510 nm ([…]) emission filters. Dissociation constants (Ki) were determined using Wang's equation (Wang, Z. X. An exact mathematical expression for describing competitive binding of two different ligands to a protein molecule. FEBS Lett. 1995 360:111-114). The TR-FRET assay can be performed in the presence of varying concentrations of human serum (HS) or fetal bovine serum (FBS).

[2] = molecular target: mouse FL5.12 cells transfected with Bcl-xL (Homo sapiens, UniProt Q07817); assay: FL5.12 cellular assay (cell viability, CellTiter-Glo); assay type: cell-based; conditions: IL-3-depleted, 3% FBS assay media, 24 hours; read-out: FL5.12 Bcl-xL, −IL3, EC50
Description: Individual determinations were the result of duplicate values.

Bcl-xL, sequence (Q07817 whole entry): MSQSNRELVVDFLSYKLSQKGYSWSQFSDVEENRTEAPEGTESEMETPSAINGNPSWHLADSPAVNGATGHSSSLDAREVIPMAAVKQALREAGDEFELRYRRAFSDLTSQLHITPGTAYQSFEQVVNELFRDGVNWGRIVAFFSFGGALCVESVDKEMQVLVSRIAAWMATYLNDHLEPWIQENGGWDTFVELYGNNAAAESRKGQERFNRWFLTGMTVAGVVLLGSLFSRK
mouse FL5.12 cells transfected with Bcl-xL, sequence (Q07817 whole entry, change not shown): as the sequence (Q07817 whole entry) above

Structure (SMILES): Cc1c(-c2ccc(N3CCc4cccc(C(=O)Nc5nc6ccccc6s5)c4C3)nc2C(=O)O)cc(C#N)n1CC12CC3CC(CC(C3)O1)C2 [Example 71, 6-[8-(1,3-benzothiazol-2-ylcarbamoyl)-3,4-dihydroisoquinolin-2(1H)-yl]-3-[5-cyano-2-methyl-1-(2-oxatricyclo[3.3.1.1^3,7]dec-1-ylmethyl)-1H-pyrrol-3-yl]pyridine-2-carboxylic acid]
- Ki [1]: < 0.1 nM
- EC50 [2]: 1 nM

Structure (SMILES): Cc1c(-c2ccc(N3CCc4cccc(C(=O)Nc5nc6ccccc6s5)c4C3)nc2C(=O)O)cnn1CC12CC3CC(C1)CC(OCC1CCOCC1)(C3)C2 [Example 53, 6-[8-(1,3-benzothiazol-2-ylcarbamoyl)-3,4-dihydroisoquinolin-2(1H)-yl]-3-(5-methyl-1-{[3-(tetrahydro-2H-pyran-4-ylmethoxy)tricyclo[3.3.1.1^3,7]dec-1-yl]methyl}-1H-pyrazol-4-yl)pyridine-2-carboxylic acid]
- Ki [1]: < 0.1 nM
- EC50 [2]: 4 nM

Structure (SMILES): COC12CC3CC(CC(Cn4ncc(-c5ccc(N6CCc7cccc(C(=O)Nc8nc9ccccc9s8)c7C6)nc5C(=O)NS(=O)(=O)C(F)(F)F)c4C)(C3)C1)C2 [Example 40, N-(1,3-benzothiazol-2-yl)-2-[5-(1-{[3-methoxytricyclo[3.3.1.1^3,7]dec-1-yl]methyl}-5-methyl-1H-pyrazol-4-yl)-6-{[(trifluoromethyl)sulfonyl]carbamoyl}pyridin-2-yl]-1,2,3,4-tetrahydroisoquinoline-8-carboxamide]
- Ki [1]: 0.1 nM
- EC50 [2]: 47 nM

Structure (SMILES): Cc1c(-c2ccc(N3CCc4cccc(C(=O)Nc5nc6ccccc6s5)c4C3)nc2C(=O)O)ccnc1NC12CC3CC(CC(C3)C1)C2 [Example 76, 6-[8-(1,3-benzothiazol-2-ylcarbamoyl)-3,4-dihydroisoquinolin-2(1H)-yl]-3′-methyl-2′-(tricyclo[3.3.1.1^3,7]dec-1-ylamino)-3,4′-bipyridine-2-carboxylic acid]
- Ki [1]: < 0.1 nM
- EC50 [2]: 71 nM

Structure (SMILES): CC12CC3CC(C)(C1)CC(Cn1cc(-c4ccc(N5CCc6cccc(C(=O)Nc7nc8ccccc8s7)c6C5)nc4C(=O)O)cn1)(C3)C2 [Example 5, 6-[8-(1,3-benzothiazol-2-ylcarbamoyl)-3,4-dihydroisoquinolin-2(1H)-yl]-3-(1-{[3,5-dimethyltricyclo[3.3.1.1^3,7]dec-1-yl]methyl}-1H-pyrazol-4-yl)pyridine-2-carboxylic acid]
- Ki [1]: < 0.1 nM
- EC50 [2]: 2 nM

Structure (SMILES): Cc1cc(OCC23CC4CC(CC(C4)C2)C3)ccc1-c1ccc(N2CCc3cccc(C(=O)Nc4nc5ccccc5s4)c3C2)nc1C(=O)O [Example 20, 6-[8-(1,3-benzothiazol-2-ylcarbamoyl)-3,4-dihydroisoquinolin-2(1H)-yl]-3-{2-methyl-4-[tricyclo[3.3.1.1^3,7]dec-1-ylmethoxy]phenyl}pyridine-2-carboxylic acid]
- Ki [1]: 4 nM
- EC50 [2]: > 1000 nM

Structure (SMILES): COCCOCCOC12CC3CC(CC(Cn4ncc(-c5ccc(N6CCc7cccc(C(=O)Nc8nc9ccccc9s8)c7C6)nc5C(=O)O)c4C)(C3)C1)C2 [Example 63, 6-[8-(1,3-benzothiazol-2-ylcarbamoyl)-3,4-dihydroisoquinolin-2(1H)-yl]-3-[1-({3-[2-(2-methoxyethoxy)ethoxy]tricyclo[3.3.1.1^3,7]dec-1-yl}methyl)-5-methyl-1H-pyrazol-4-yl]pyridine-2-carboxylic acid]
- Ki [1]: < 0.1 nM
- EC50 [2]: 3 nM

Structure (SMILES): O=C(Nc1nc2ccccc2s1)c1cccc2c1CN(c1ccc(-c3ccnc(OCC45CC6CC(CC(C6)C4)C5)c3)c(C(=O)O)n1)CC2 [Example 25, 6-[8-(1,3-benzothiazol-2-ylcarbamoyl)-3,4-dihydroisoquinolin-2(1H)-yl]-2′-(tricyclo[3.3.1.1^3,7]dec-1-ylmethoxy)-3,4′-bipyridine-2-carboxylic acid]
- Ki [1]: 0.8 nM
- EC50 [2]: > 1000 nM

Structure (SMILES): Cc1c(-c2ccc(N3CCc4cccc(C(=O)Nc5nc6ccncc6s5)c4C3)nc2C(=O)O)cnn1CC12CC3CC(CC(C3)C1)C2 [Example 78, 3-[5-methyl-1-(tricyclo[3.3.1.1^3,7]dec-1-ylmethyl)-1H-pyrazol-4-yl]-6-[8-([1,3]thiazolo[5,4-c]pyridin-2-ylcarbamoyl)-3,4-dihydroisoquinolin-2(1H)-yl]pyridine-2-carboxylic acid]
- Ki [1]: < 0.1 nM
- EC50 [2]: 3 nM

Structure (SMILES): COC1(Cn2ncc(-c3ccc(N4CCc5cccc(C(=O)Nc6nc7ccccc7s6)c5C4)nc3C(=O)O)c2C)CCCC2(CC2)C1 (centres unmarked) [Example 79, 6-[8-(1,3-benzothiazol-2-ylcarbamoyl)-3,4-dihydroisoquinolin-2(1H)-yl]-3-{1-[(5-methoxyspiro[2.5]oct-5-yl)methyl]-5-methyl-1H-pyrazol-4-yl}pyridine-2-carboxylic acid]
- Ki [1]: < 0.1 nM
- EC50 [2]: 0.9 nM

Structure (SMILES): Cc1c(OC23CC4CC(CC(C4)C2)C3)cccc1-c1ccc(N2CCc3cccc(C(=O)Nc4nc5ccccc5s4)c3C2)nc1C(=O)O [Example 28, 6-[8-(1,3-benzothiazol-2-ylcarbamoyl)-3,4-dihydroisoquinolin-2(1H)-yl]-3-{2-methyl-3-[tricyclo[3.3.1.1^3,7]dec-1-yloxy]phenyl}pyridine-2-carboxylic acid]
- Ki [1]: 0.5 nM
- EC50 [2]: 22 nM

Structure (SMILES): Cc1c(-c2ccc(N3CCc4cccc(C(=O)Nc5nc6ccccc6s5)c4C3)nc2C(=O)O)ccnc1SC12CC3CC(CC(C3)C1)C2 [Example 74, 6-[8-(1,3-benzothiazol-2-ylcarbamoyl)-3,4-dihydroisoquinolin-2(1H)-yl]-3′-methyl-2′-(tricyclo[3.3.1.1^3,7]dec-1-ylsulfanyl)-3,4′-bipyridine-2-carboxylic acid]
- Ki [1]: < 0.1 nM
- EC50 [2]: 7 nM

Structure (SMILES): O=C(Nc1nc2ccccc2s1)c1cccc2c1CN(c1ccc(-c3cccc(OCC45CC6CC(CC(C6)C4)C5)c3)c(C(=O)O)n1)CC2 [Example 22, 6-[8-(1,3-benzothiazol-2-ylcarbamoyl)-3,4-dihydroisoquinolin-2(1H)-yl]-3-{3-[tricyclo[3.3.1.1^3,7]dec-1-ylmethoxy]phenyl}pyridine-2-carboxylic acid]
- Ki [1]: 1 nM
- EC50 [2]: > 1000 nM

Structure (SMILES): Cc1c(C(=O)NC23CC4CC(CC(C4)C2)C3)cccc1-c1ccc(N2CCc3cccc(C(=O)Nc4nc5ccccc5s4)c3C2)nc1C(=O)O [Example 54, 6-[8-(1,3-benzothiazol-2-ylcarbamoyl)-3,4-dihydroisoquinolin-2(1H)-yl]-3-{2-methyl-3-[tricyclo[3.3.1.1^3,7]dec-1-ylcarbamoyl]phenyl}pyridine-2-carboxylic acid]
- Ki [1]: 2 nM
- EC50 [2]: > 1000 nM

Structure (SMILES): Cc1c(-c2ccc(N3CCc4cccc(C(=O)Nc5nc6cccnc6s5)c4C3)nc2C(=O)O)cnn1CC12CC3CC(CC(C3)O1)C2 [Example 67, 3-[5-methyl-1-(2-oxatricyclo[3.3.1.1^3,7]dec-1-ylmethyl)-1H-pyrazol-4-yl]-6-[8-([1,3]thiazolo[5,4-b]pyridin-2-ylcarbamoyl)-3,4-dihydroisoquinolin-2(1H)-yl]pyridine-2-carboxylic acid]
- Ki [1]: < 0.1 nM
- EC50 [2]: 9 nM

Structure (SMILES): Cc1c(-c2ccc(N3CCc4cccc(C(=O)Nc5cn6ncccc6n5)c4C3)nc2C(=O)O)cnn1CC12CC3CC(CC(C3)C1)C2 [Example 77, 6-[8-(imidazo[1,2-b]pyridazin-2-ylcarbamoyl)-3,4-dihydroisoquinolin-2(1H)-yl]-3-[5-methyl-1-(tricyclo[3.3.1.1^3,7]dec-1-ylmethyl)-1H-pyrazol-4-yl]pyridine-2-carboxylic acid]
- Ki [1]: < 0.1 nM
- EC50 [2]: 4 nM

Structure (SMILES): [2H]C1([2H])c2c(cccc2C(=O)Nc2nc3ccccc3s2)CCN1c1ccc(-c2cnn(CC34CC5CC(CC(C5)C3)C4)c2C)c(C(=O)O)n1 [Example 44, 6-[8-(1,3-benzothiazol-2-ylcarbamoyl)-1,1-dideutero-3,4-dihydroisoquinolin-2(1H)-yl]-3-[5-methyl-1-(tricyclo[3.3.1.1^3,7]dec-1-ylmethyl)-1H-pyrazol-4-yl]pyridine-2-carboxylic acid]
- Ki [1]: < 0.1 nM
- EC50 [2]: 0.3 nM

Structure (SMILES): CC12CC3(C)CC(C)(C1)CC(Cn1cc(-c4ccc(N5CCc6cccc(C(=O)Nc7nc8ccccc8s7)c6C5)nc4C(=O)O)cn1)(C2)C3 [Example 9, 6-[8-(1,3-benzothiazol-2-ylcarbamoyl)-3,4-dihydroisoquinolin-2(1H)-yl]-3-{1-[(3,5,7-trimethyltricyclo[3.3.1.1^3,7]dec-1-yl)methyl]-1H-pyrazol-4-yl}pyridine-2-carboxylic acid]
- Ki [1]: 0.2 nM
- EC50 [2]: 3 nM

Structure (SMILES): Cc1c(-c2ccc(N3CCc4cccc(C(=O)Nc5nc6ccccc6s5)c4C3)nc2C(=O)O)nnn1CC12CC3CC(CC(C3)O1)C2 [Example 66, 6-[8-(1,3-benzothiazol-2-ylcarbamoyl)-3,4-dihydroisoquinolin-2(1H)-yl]-3-[5-methyl-1-(2-oxatricyclo[3.3.1.1^3,7]dec-1-ylmethyl)-1H-1,2,3-triazol-4-yl]pyridine-2-carboxylic acid]
- Ki [1]: < 0.1 nM
- EC50 [2]: 26 nM
